From patent publication US20190247312A1, “PHARMACEUTICAL PREPARATION FOR DELIVERY OF PEPTIDES AND PROTEINS” (priority 2016, published 2019)

How the values were obtained:
[1] = system: blood glucose; experiment: Blood glucose after dosing in STZ type I diabetes model (Example 5); format: in vivo, Sprague-Dawley(SD) rats; details: 5 IU/kg s.c. control
[2] = Pharmacokinetics of orally dosed insulin emulsion particles in STZ-treated rats (Example 3), plasma insulin; details: 5 IU/kg s.c. control
Description: Parameters were estimated using Watson pharmacokinetic software 7.4.2 (Thermo Electron Corporation) using a non-compartmental approach consistent with the various routes of administration. All parameters were generated from Insulin individual animal concentrations in plasma. Parameters were estimated using nominal sampling times to be relative to the start of each dose administration (within an acceptable tolerance limit).
The area under the test item concentration versus time curve (AUC) was calculated using the linear-log linear trapezoidal method. AUC was not calculated for PK profiles with less than 3 consecutive quantifiable concentrations of test article at separate time points. When practical, the terminal elimination phase of each concentration versus time curve was identified using at least the final three observed concentration values. The slope of the terminal elimination phase was determined using linear regression on the unweighted concentration data. […] The parameters described below were reported to 3 significant figures.

[3] = in 0.01N HCl; cited from earlier work
[4] = system: blood glucose; experiment: Blood glucose after dosing in STZ type I diabetes model (Example 3); format: in vivo, Sprague-Dawley(SD) rats; details: 5 IU/kg s.c. control
Description: Animals were monitored for blood glucose levels daily over 10 days using a handheld glucometer to verify the disruption of insulin production. […] Prior to the experimental procedure, animals were weighed and randomized into groups based on body weight. All rats were then fasted for five hours prior to dosing.
Control animals were given 5 IU/kg s.c. or 2.5 IU/kg i.v., while experimental animals were dosed orally with 50 IU/kg of microemulsion particles. Food was returned immediately post-dosage and blood was collected at the indicated time points (15, 30, 30, 60, 90, 120, 150, 180, 210, 240, 270, 300, 480, 720, and 1440) over a 24 hr. period. Whole blood was processed to plasma and analyzed for insulin quantity.
Mean insulin and glucose concentrations from the blood of animals were assessed following dosing of 5 IU/kg subcutaneous insulin, 50 IU/kg per os (p.o., i.e., orally) administered TA-3 (BCC with zinc), 50 IU/kg p.o. administered TA-4 (zinc without BCC), and 50 IU/kg p.o. administered TA-7 (BCC without zinc).

insulin
blood glucose concentrations after s.c. injection [1]: drop in blood glucose concentrations beginning just as insulin is detected in the blood | blood insulin levels after s.c. administration [2]: rapid appearance and peak of insulin in the blood | solubility [3]: 20 mg/mL | blood glucose after s.c. administration [4]: corresponding declines in blood glucose
